Measured values from patent US20240246992A1, “MACROCYCLIC LRRK2 KINASE INHIBITORS” (LES LABORATOIRES SERVIER, priority 2021, published 2024).
pIC50: −log10 of the molar value.

Target: human recombinant LRRK2 protein (Homo sapiens, UniProt Q5S007)
Assay: LRRK2 kinase activity assay (ADP-Glo, LRRKtide peptide)
Type: biochemical
Settings: human recombinant LRRK2 wt, LRRKtide peptide and ATP, 1 h at 37° C.
In short: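 Human recombinant LRRK2 reacted with LRRKtide peptide and ATP for 1 h at 37 °C in the presence of compound. ADP formed measured by ADP-Glo luminescence; IC50 fitted from 10 concentrations run in duplicate.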

Sequence of human recombinant LRRK2 protein (Q5S007 whole entry): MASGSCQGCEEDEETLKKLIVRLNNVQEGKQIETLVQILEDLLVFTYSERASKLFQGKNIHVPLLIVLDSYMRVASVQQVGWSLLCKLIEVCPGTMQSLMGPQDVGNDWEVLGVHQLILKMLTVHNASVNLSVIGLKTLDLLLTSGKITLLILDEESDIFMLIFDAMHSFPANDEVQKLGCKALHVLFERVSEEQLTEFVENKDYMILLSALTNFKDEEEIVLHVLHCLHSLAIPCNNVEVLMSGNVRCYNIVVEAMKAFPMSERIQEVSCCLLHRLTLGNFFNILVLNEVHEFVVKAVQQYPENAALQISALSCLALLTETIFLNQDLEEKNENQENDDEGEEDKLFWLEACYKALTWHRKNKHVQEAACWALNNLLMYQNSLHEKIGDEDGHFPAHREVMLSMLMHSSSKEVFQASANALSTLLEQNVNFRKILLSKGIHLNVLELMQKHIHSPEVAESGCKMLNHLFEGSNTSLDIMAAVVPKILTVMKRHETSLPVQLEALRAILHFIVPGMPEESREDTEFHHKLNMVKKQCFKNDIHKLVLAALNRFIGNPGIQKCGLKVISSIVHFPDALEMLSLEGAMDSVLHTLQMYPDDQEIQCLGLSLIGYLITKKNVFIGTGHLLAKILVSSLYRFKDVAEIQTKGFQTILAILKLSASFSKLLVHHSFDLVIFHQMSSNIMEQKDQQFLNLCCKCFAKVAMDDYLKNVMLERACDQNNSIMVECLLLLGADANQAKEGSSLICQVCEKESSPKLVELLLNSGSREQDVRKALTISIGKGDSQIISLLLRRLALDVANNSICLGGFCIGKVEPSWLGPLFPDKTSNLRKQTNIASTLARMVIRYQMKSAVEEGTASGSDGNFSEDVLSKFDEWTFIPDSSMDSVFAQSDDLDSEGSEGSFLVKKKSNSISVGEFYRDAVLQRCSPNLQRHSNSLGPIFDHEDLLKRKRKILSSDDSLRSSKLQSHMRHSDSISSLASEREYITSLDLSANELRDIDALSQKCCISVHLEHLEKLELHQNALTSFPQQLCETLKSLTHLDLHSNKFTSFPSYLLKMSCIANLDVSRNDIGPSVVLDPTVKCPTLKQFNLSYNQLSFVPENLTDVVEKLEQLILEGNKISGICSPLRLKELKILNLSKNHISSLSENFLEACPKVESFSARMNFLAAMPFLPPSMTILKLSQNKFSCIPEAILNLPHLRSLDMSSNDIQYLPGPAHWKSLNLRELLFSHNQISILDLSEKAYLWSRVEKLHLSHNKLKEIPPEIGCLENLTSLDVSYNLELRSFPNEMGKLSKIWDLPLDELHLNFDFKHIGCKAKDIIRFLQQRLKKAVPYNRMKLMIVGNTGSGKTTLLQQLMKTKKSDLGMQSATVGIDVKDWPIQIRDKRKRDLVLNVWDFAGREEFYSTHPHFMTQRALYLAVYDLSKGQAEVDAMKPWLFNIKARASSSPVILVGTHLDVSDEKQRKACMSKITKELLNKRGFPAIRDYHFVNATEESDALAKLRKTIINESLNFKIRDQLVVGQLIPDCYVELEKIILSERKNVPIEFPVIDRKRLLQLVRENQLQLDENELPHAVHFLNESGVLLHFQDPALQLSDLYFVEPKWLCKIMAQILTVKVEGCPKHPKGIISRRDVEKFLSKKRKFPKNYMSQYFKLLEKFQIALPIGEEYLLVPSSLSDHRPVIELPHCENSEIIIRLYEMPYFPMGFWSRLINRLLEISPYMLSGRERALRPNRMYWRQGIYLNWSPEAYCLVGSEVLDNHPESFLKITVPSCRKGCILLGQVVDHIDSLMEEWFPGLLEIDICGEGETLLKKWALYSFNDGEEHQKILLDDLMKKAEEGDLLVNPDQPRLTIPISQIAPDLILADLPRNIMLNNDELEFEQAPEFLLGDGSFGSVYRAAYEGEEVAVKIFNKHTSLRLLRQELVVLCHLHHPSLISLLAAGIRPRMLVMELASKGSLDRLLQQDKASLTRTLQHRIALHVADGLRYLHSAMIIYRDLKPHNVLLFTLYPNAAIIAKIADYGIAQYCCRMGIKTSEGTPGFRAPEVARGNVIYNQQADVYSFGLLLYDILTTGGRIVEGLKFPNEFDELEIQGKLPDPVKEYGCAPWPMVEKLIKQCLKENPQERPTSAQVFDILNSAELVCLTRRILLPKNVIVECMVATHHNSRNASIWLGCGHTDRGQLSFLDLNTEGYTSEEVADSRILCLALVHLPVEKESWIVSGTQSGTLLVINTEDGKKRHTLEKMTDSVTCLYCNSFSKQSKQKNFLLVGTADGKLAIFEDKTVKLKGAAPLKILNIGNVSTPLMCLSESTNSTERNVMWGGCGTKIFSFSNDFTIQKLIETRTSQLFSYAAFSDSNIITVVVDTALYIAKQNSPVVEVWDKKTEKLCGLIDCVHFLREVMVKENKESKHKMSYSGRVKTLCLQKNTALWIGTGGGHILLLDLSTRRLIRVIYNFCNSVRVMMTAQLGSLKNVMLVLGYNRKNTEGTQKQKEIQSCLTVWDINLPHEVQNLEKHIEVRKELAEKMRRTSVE

pIC50	Structure (SMILES)
> 7.00	c1nn2cc1-c1n[nH]c3ccc(nc13)OCCOCCOCC2 [Example 73, 8,11,14-trioxa-4,5,19,20,22-pentaazatetracyclo[13.5.2.1^2,5.0^18,21]tricosa-1(20),2(23),3,15(22), 16,18(21)-hexaene]
> 8.00	c1cc2[nH]nc3c2cc1OCCCOCCCn1ncc-3n1 [Example 74, 9,13-dioxa-4,5,18,19,22-pentaazatetracyclo[12.5.2.1^2,5.0^17,20]docosa-1(19), 2(22),3,14(21),15,17(20)-hexaene]
> 8.00	C[C@@H]1CCOCCOCC2=NC=C(S2)c2n[nH]c3ccc(cc23)O1 [Example 75, (13R)-13-methyl-7,10,14-trioxa-23-thia-4,19,20-triazatetracyclo[13.5.2.1^2,5.0^18,21]tricosa-1(20),2,4,15(22),16,18(21)-hexaene]
< 6.00	C[C@@H]1COCCOCCc2nc(cn2C)-c2n[nH]c3ccc(cc23)O1 [Example 76, (13R)-4,13-dimethyl-8,11,14-trioxa-4,19,20,23-tetraazatetracyclo[13.5.2.1^2,5.0^18,21]tricosa-1(20),2,5(23),15(22),16,18(21)-hexaene]
> 7.00	C[C@@H]1Cn2cc(cn2)-c2n[nH]c3ccc(cc23)OCCOCCO1 [Example 77, (7R)-7-methyl-8,11,14-trioxa-4,5,19,20-tetraazatetracyclo[13.5.2.1^2,5.0^18,21] tricosa-1(20),2(23),3,15(22),16,18(21)-hexaene]
> 8.00	FC1(F)COCCOCCn2cc(cn2)-c2n[nH]c3ccc(cc23)O1 [Example 78, 13,13-difluoro-8,11,14-trioxa-4,5,19,20-tetraazatetra cyclo[13.5.2.1^2,5.0^18,21]tricosa-1(20),2(23),3, 15(22),16,18(21)-hexaene]
> 7.00	C[C@H]1CCOCCOCc2nc(cn2C)-c2n[nH]c3ccc(cc23)O1 [Example 79, (13S)-4,13-dimethyl-7,10,14-trioxa-4,19,20,23-tetraazatetracyclo[13.5.2.1^2,5.0^18,21]tricosa-1(20),2,5(23),15(22),16,18(21)-hexaene]
> 6.00	C[C@H]1COCCOCCn2ccc(n2)-c2n[nH]c3ccc(cc23)O1 [Example 80, (13S)-13-methyl-8,11,14-trioxa-5,19,20,23-tetraazatetracyclo [13.5.2.1^2,5.0^18,21]tricosa-1(20),2(23),3,15(22),16,18(21)-hexaene]
> 7.00	C[C@H]1COCCOCCn2ncc(n2)-c2n[nH]c3ccc(cc23)O1 [Example 81, (13S)-13-methyl-8,11,14-trioxa-4,5,19,20,23-pentaazatetracyclo[13.5.2.1^2,5.0^18,21]tricosa-1(20),2(23),3,15(22),16,18(21)-hexaene]
> 7.00	C[C@@H]1COCCOCCn2cc(cc2C#N)-c2n[nH]c3ccc(cc23)O1 [Example 82, (13R)-13-methyl-8,11,14-trioxa-5,19,20-triazatetracyclo[13.5.2.1^2,5.0^18,21] tricosa-1(20),2(23),3,15(22),16,18(21)-hexaene-4-carbonitrile]
> 6.00	C[C@@H]1COCCOCCn2ccc(n2)-c2n[nH]c3ccc(cc23)O1 [Example 83, (13R)-13-methyl-8,11,14-trioxa-5,19,20,23-tetraazatetracyclo[13.5.2.1^2,5.0^18,21]tricosa-1(20),2(23),3,15(22),16,18(21)-hexaene]
> 8.00	c1cc2[nH]nc3c2cc1OCCOCCCOCc1ncc-3s1 [Example 84, 7,11,14-trioxa-23-thia-4,19,20-triazatetracyclo[13.5.2.1^2,5.0^18,21]tricosa-1(20),2,4,15(22), 16,18(21)-hexaene]
> 8.00	C[C@H]1COc2ccc3[nH]nc(c3c2)-c2cc(C#N)n(c2)CCOCCO1 [Example 85, (12S)-12-methyl-8,11,14-trioxa-5,19,20-triazatetracyclo[13.5.2.1^2,5.0^18,21] tricosa-1(20),2(23),3,15(22),16,18(21)-hexaene-4-carbonitrile]
> 8.00	C[C@@H]1COc2ccc3[nH]nc(c3c2)-c2cc(C#N)n(c2)CCOCCO1 [Example 86, (12R)-12-methyl-8,11,14-trioxa-5,19,20-triazatetracyclo [13.5.2.1^2,5.0^18,21]tricosa-1(20),2(23),3,15(22),16,18(21)-hexaene-4-carbonitrile]
> 8.00	C[C@@H]1COCCO[C@@H](C)COc2ccc3[nH]nc(c3c2)-c2cnn1c2 [Example 87, (6R,12S)-6,12-dimethyl-8,11,14-trioxa-4,5,19,20-tetraazatetracyclo[13.5.2.1^2,5.0^18,21]tricosa-1(20),2(23),3,15(22),16,18(21)-hexaene]
> 8.00	C[C@@H]1COCCOCCn2cc(cn2)-c2n[nH]c3c(F)cc(cc23)O1 [Example 88, (13R)-17-fluoro-13-methyl-8,11,14-trioxa-4,5,19,20-tetraazatetracyclo [13.5.2.1^2,5.0^18,21]tricosa-1(20),2(23),3,15(22),16,18(21)-hexaene]

pIC50	Structure (SMILES)
> 8.00	C[C@H]1COc2ccc3[nH]nc(c3c2)-c2cnn(c2)[C@@H](C)COCCO1 [Example 89, (6S,12S)-6,12-dimethyl-8,11,14-trioxa-4,5,19,20-tetraazatetracyclo [13.5.2.1^2,5.0^18,21]tricosa-1(20),2(23),3,15(22),16,18(21)-hexaene]
> 8.00	C[C@@H]1CCOCCCn2ncc(n2)-c2n[nH]c3ccc(cc23)O1 [Example 90, (12R)-12-methyl-9,13-dioxa-4,5,18,19,22-pentaazatetracyclo[12.5.2.1^2,5.0^17,20]docosa-1(19),2(22),3,14(21),15,17(20)-hexaene]
> 7.00	CN1CCOCCOc2cc(cc(N3CCOCC3)c2)-c2n[nH]c3ccc(cc23)C1 [Example 91, 13-methyl-4-(morpholin-4-yl)-7,10-dioxa-13,19,20-triazatetracyclo [13.5.2.1^2,6.0^18,21]tricosa-1(20),2,4,6(23),15,17,21-heptaene]
> 8.00	C[C@H]1CCOCCCn2ncc(n2)-c2n[nH]c3ccc(cc23)O1 [Example 92, (12S)-12-methyl-9,13-dioxa-4,5,18,19,22-pentaazatetracyclo[12.5.2.1^2,5.0^17,20]docosa-1(19),2(22),3,14(21),15,17(20)-hexaene]
> 7.00	C[C@@H]1COCCOC[C@H](C)n2cc(cn2)-c2n[nH]c3ccc(cc23)O1 [Example 93, (6S,13R)-6,13-dimethyl-8,11,14-trioxa-4,5,19,20-tetraazatetracyclo[13.5.2.1^2,5.0^18,21]tricosa-1(20),2(23),3,15(22),16,18(21)-hexaene]
> 8.00	C[C@@H]1CCOCC[C@@H](C)n2ncc(n2)-c2n[nH]c3ccc(cc23)O1 [Example 94, (6R,12R)-6,12-dimethyl-9,13-dioxa-4,5,18,19,22-pentaazatetracyclo[12.5.2.1^2,5.0^17,20]docosa-1(19),2(22),3,14(21),15,17(20)-hexaene]
> 7.00	COC1COCCOC[C@@H](C)Oc2ccc3[nH]nc(c3c2)-c2cnn1c2 (stereo partly drawn) [Example 95, (13R)-6-methoxy-13-methyl-8,11,14-trioxa-4,5,19,20-tetraazatetracyclo [13.5.2.1^2,5.0^18,21]tricosa-1(20),2(23),3,15(22),16,18(21)-hexaene]
> 7.00	c1nn2cc1-c1n[nH]c3cnc(cc13)OCCOCCOCC2 [Example 96, 8,11,14-trioxa-4,5,16,19,20-pentaazatetracyclo[13.5.2.1^2,5.0^18,21]tricosa-1(20),2(23),3,15(22),16,18(21)-hexaene]
> 8.00	C[C@@H]1CCO[C@@H](C)CCn2cc(cn2)-c2n[nH]c3ccc(cc23)O1 [Example 97, (8S,12R)-8,12-dimethyl-9,13-dioxa-4,5,18,19-tetraaza tetracyclo[12.5.2.1^2,5.0^17,20]docosa-1(19),2(22),3,14(21),15,17(20)-hexaene]
> 8.00	C[C@@H]1CCn2cc(cn2)-c2n[nH]c3ccc(cc23)O[C@H](C)CCO1 [Example 98, (8R,12R)-8,12-dimethyl-9,13-dioxa-4,5,18,19-tetraazatetracyclo[12.5.2.1^2,5.0^17,20]docosa-1(19),2(22),3,14(21),15,17(20)-hexaene]
> 8.00	C[C@@H]1OCCOCCn2cc(cn2)-c2n[nH]c3ccc(cc23)O[C@@H]1C [Example 99, (12S,13R)-12,13-dimethyl-8,11,14-trioxa-4,5,19,20-tetraazatetracyclo[13.5.2.1^2,5.0^18,21]tricosa-1(20),2(23),3,15(22),16,18(21)-hexaene]
> 7.00	C[C@@H]1Oc2ccc3[nH]nc(c3c2)-c2cnn(c2)CCOCCO[C@@H]1C [Example 100, (12R,13S)-12,13-dimethyl-8,11,14-trioxa-4,5,19,20-tetraazatetra cyclo[13.5.2.1^2,5.0^18,21]tricosa-1(20),2(23),3,15(22),16,18(21)-hexaene]
> 8.00	C[C@H]1COCCOC[C@H](C)n2cc(cn2)-c2n[nH]c3ccc(cc23)O1 [Example 101, (6S,13S)-6,13-dimethyl-8,11,14-trioxa-4,5,19,20-tetraazatetracyclo[13.5.2.1^2,5.0^18,21]tricosa-1(20),2(23),3,15(22),16,18(21)-hexaene]
> 8.00	c1cc2[nH]nc3c2cc1OCCCCOCCn1cc-3cn1 [Example 102, 8,13-dioxa-4,5,18,19-tetraazatetracyclo[12.5.2.1^2,5.0^17,20]docosa-1(19),2(22),3,14(21),15,17(20)-hexaene]
> 8.00	C[C@@H]1CCOCC[C@H](C)n2ncc(n2)-c2n[nH]c3ccc(cc23)O1 [Example 103, (6S,12R)-6,12-dimethyl-9,13-dioxa-4,5,18,19,22-pentaazatetracyclo[12.5.2.1^2,5.0^17,20]docosa-1(19),2(22),3,14(21),15,17(20)-hexaene]
> 8.00	c1cc2[nH]nc3c2cc1OCCOCCCCn1cc-3cn1 [Example 104, 10,13-dioxa-4,5,18,19-tetraazatetracyclo[12.5.2.1^2,5.0^17,20]docosa-1(19),2(22),3,14(21),15,17(20)-hexaene]
